This is an account of results in patent US12678434B2, “Compositions and methods for modulating ACE2 receptor” (priority 2020, dated 2026).

One assay relates to SARS-CoV-2. The experiment in a line: Medication use in COVID-19 positive and negative patients (retrospective propensity-score-matched study of hospitalized patients). The class given is in vivo, human. The conditions noted are these: for SARS-CoV-2 Positive Test Result, percentage of patients (infection rate): drug use group of PS-matched sample, hospitalized patients Jan. 1, 2020 to Dec. 30, 2020; for difference in SARS-CoV-2 infection rates between drug use and no drug use: PS-matched groups, significance defined as p<0.05.

The test system of a further assay is VERO-E6 cells. The class given is cell-based, monkey. The note with it: 100 μM drug for 6 hours without FBS, then spike protein (30 ug) for 12 hours.
In a further assay the target is T1, Human recombinant ACE2 (Homo sapiens, UniProt Q9BYF1).
T1 construct: purchased R&D systems, Minneapolis, USA
T1 sequence (Q9BYF1 18-740 limits assumed): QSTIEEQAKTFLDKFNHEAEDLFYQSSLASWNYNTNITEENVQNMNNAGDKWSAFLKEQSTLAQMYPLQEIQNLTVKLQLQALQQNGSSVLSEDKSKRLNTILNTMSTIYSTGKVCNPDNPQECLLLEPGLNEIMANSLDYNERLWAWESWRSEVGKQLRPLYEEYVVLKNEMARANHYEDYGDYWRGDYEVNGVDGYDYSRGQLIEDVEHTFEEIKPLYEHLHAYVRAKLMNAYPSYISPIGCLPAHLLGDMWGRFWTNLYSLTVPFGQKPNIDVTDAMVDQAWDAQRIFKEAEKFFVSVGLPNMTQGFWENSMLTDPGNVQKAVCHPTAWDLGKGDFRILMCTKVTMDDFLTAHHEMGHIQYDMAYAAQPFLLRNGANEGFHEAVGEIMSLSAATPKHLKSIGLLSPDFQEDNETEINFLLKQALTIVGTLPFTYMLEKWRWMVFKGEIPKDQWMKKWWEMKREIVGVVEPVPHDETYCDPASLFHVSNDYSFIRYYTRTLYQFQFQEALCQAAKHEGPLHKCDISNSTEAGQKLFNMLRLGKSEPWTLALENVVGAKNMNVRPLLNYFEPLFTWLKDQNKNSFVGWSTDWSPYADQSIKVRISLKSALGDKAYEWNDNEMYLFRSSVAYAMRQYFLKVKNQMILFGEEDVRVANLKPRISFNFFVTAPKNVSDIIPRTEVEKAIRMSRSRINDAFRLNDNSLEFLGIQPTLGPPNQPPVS
The assay is classed as biochemical.

The mark [1] stands for this setting: SARS-CoV-2 positive patients, drug use group, PS-matched.
Setting [2] is: patients who tested positive in PS-matched sample.

Entries after “also recorded” stand apart in the source; their conditions may differ.

In the case of `CN1CCCC(n2nc(Cc3ccc(Cl)cc3)c3ccccc3c2=O)CC1` (centres unmarked) [Azelastine], the “SARS-CoV-2 Positive Test Result, percentage of patients (infection rate)” value in the assay on SARS-CoV-2 was 7.69%. The same measure, in the same setting: to `CN(C)CCC(c1ccc(Br)cc1)c1ccccn1` (centres unmarked) [Brompheniramine] belongs 33.33%; to `O=C(O)COCCN1CCN(C(c2ccccc2)c2ccc(Cl)cc2)CC1` (centres unmarked) [Cetirizine], 17.97%. Take `CN(C)CCC(c1ccc(Cl)cc1)c1ccccn1` (centres unmarked) [Chlorpheniramine]: the “SARS-CoV-2 Positive Test Result, percentage of patients (infection rate)” value with SARS-CoV-2 is reported as 16.67%. The same measure, in the same setting: under `CN/C(=N/CCSCc1nc[nH]c1C)NC#N` [Cimetidine] stands 35.71%. For the compound `CN(C)CCOC(c1ccccc1)c1ccccc1` [Diphenhydramine], in the assay with VERO-E6 cells, the “spike protein in the cell lysate (western blot)” value (from here on “spike protein in the cell lysate”) is on record as “no spike protein”. Moreover, in the assay on SARS-CoV-2, the “SARS-CoV-2 Positive Test Result, percentage of patients (infection rate)” value was found to be 12.8%. Besides, at Human recombinant ACE2, the “concentration at transition point from inhibiting to activating the ACE2 receptor” value turned out to be 1 µM. With `NC(N)=Nc1nc(CSCCC(N)=NS(N)(=O)=O)cs1` [Famotidine], in the assay on SARS-CoV-2, the “SARS-CoV-2 Positive Test Result, percentage of patients (infection rate)” value is on record as 18.87%. Same read-out and setting: to `CC(C)(C(=O)O)c1ccc(C(O)CCCN2CCC(C(O)(c3ccccc3)c3ccccc3)CC2)cc1` (centres unmarked) [Fexofenadine] belongs 18.92%. On to `OCCOCCN1CCN(C(c2ccccc2)c2ccc(Cl)cc2)CC1` (centres unmarked) [Hydroxyzine], for which, in the assay with VERO-E6 cells, the “spike protein in the cell lysate” value was “no spike protein”. Besides, in the assay on SARS-CoV-2, the “difference in SARS-CoV-2 infection rates between drug use and no drug use” value is recorded as “statistically significantly different”; the “SARS-CoV-2 Positive Test Result, percentage of patients (infection rate)” value is 12.62%. Moreover, in the assay with SARS-CoV-2 (listed as hydroxyzine), the “difference in SARS-CoV-2 infection rates between drug use and no drug use” value was “significant difference; also recorded: lower infection rates”. In the assay with SARS-CoV-2 (setting [1]), the “ICU Admission, number of patients” value is 5; the “ICU Admission, percentage of patients” value was determined as 19.23%; the “ICU LOS (length of stay), mean (standard deviation)” value is listed as 22.4 (26.43). The “Odds Ratio for SARS-CoV-2 infection” value in the assay on SARS-CoV-2 (multiple logistic regression model, drug use as covariate, PS-matched sample) worked out at 0.919. Also, in the assay on SARS-CoV-2 (setting [2]), the “difference in ICU admission rates between drug use and no drug use” value is given as “not a significant difference”; the “difference in ICU length of stay between drug use and no drug use” value is “not a significant difference”. The “fluorescence signal (ACE2 activity) upon further addition of drug” value (shortened to “fluorescence signal”) on Human recombinant ACE2 is reported as “increased”. Turning to `CN1CCC(=C2c3ccccc3CC(=O)c3sccc32)CC1` [Ketotifen], the “SARS-CoV-2 Positive Test Result, percentage of patients (infection rate)” value in the assay with SARS-CoV-2 was 0 (0%). With `O=C(O)COCCN1CCN([C@H](c2ccccc2)c2ccc(Cl)cc2)CC1` [Levocetirizine, levocetirizine], in the assay on VERO-E6 cells, the “spike protein in the cell lysate” value was “no spike protein”. Besides, the “SARS-CoV-2 Positive Test Result, percentage of patients (infection rate)” value in the assay with SARS-CoV-2 is given as 15.38%. Further, the “fluorescence signal” value at Human recombinant ACE2 is reported as “further decreased”.

As to `CCOC(=O)N1CCC(=C2c3ccc(Cl)cc3CCc3cccnc32)CC1` [Loratadine], in the assay with SARS-CoV-2, the “SARS-CoV-2 Positive Test Result, percentage of patients (infection rate)” value stood at 18.65%. Take `CN(C)CC/C=C1/c2ccccc2COc2ccc(CC(=O)O)cc21` [Olopatadine]: the “SARS-CoV-2 Positive Test Result, percentage of patients (infection rate)” value in the assay with SARS-CoV-2 was 18.75%. For `CN1CCC[C@@H](n2nc(Cc3ccc(Cl)cc3)c3ccccc3c2=O)CC1` [R-Azelastine], the “spike protein in the cell lysate” value in the assay with VERO-E6 cells was “no spike protein”. Besides, the “concentration at transition point from inhibiting to activating the ACE2 receptor” value at Human recombinant ACE2 is 1 µM.

`CNC(=C[N+](=O)[O-])NCCSCc1ccc(CN(C)C)o1` [Ranitidine]: the “SARS-CoV-2 Positive Test Result, percentage of patients (infection rate)” value in the assay on SARS-CoV-2 was 15.29%. For the compound `CN1CCC[C@H](n2nc(Cc3ccc(Cl)cc3)c3ccccc3c2=O)CC1` [S-Azelastine], the “concentration at transition point from inhibiting to activating the ACE2 receptor” value on Human recombinant ACE2 was determined as 1 µM. As to `O=C(O)COCCN1CCN([C@@H](c2ccccc2)c2ccc(Cl)cc2)CC1` [S-Cetirizine, dextrocetirizine], the “fluorescence signal” value on Human recombinant ACE2 is “further decreased”.
